Reference: patent publication US20080276327A1, “Methods and Compositions Related to Delivery of Chemical Compounds to Invertebrate Embryos” (UNIVERSITY OF UTAH RESEARCH FOUNDATION, priority 2004, published 2008)

Tested on: Drosophila embryos
Assay: DMSO dose-response, development and hatching of Drosophila embryos
Type: in vivo
Experimental: Initial studies examined the toxicity of DMSO in Drosophila embryos.
First it was shown that DMSO was not deleterious to normal embryonic development.
Broad dilution series were made of DMSO in PBS. Approximately 50 eggs were placed in each well of a 96 well plate containing these solutions. They were placed at 18° C. or at 25° C. and hatched offspring were counted at the end of embryonic development (36 hours at 18° and 24 hours at 25°). […] 100% of eggs produced normal larvae at concentrations as high as 5% in PBS, pH 7.2. At 7.5% DMSO the percentage declined dramatically to approximately 50% and by 10% DMSO, the percentage hatching was only ˜10%.

## C[S+](C)[O-] [DMSO]
7.5% DMSO in PBS
  percentage hatching: Approximately 50%
10% DMSO in PBS
  percentage hatching: ~10%
DMSO as high as 5% in PBS, pH 7.2
  eggs that produced normal larvae: 100%
Concentrations of DMSO as high as 5%
  embryos in which normal development occurs: 100%
dose-response curves
  concentrations of DMSO at which embryonic development proceeds normally to eclosion: ≤ 5 % v/v
Solutions above 5% DMSO
  percentages surviving at 25° compared with 18°: always less than those kept at 18°
